From ChEMBL document CHEMBL1201862, “PubChem BioAssay data set” (2004)
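Five concentrations, 48 hours, 96-well plates. The concentration for 50% growth inhibition is given as GI50.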 Calls of active or inactive are those of the source. No stated cut-off is given here; in the data, active = GI50 up to about 1.1 µM and inactive = higher.

Assays:
Assay in all cases: NCI anticancer screen, dose series, 48 h
[1] = system: 786-0
[2] = system: A498
[3] = system: A549
[4] = system: ACHN
[5] = system: BT-549
[6] = system: CAKI-1
[7] = system: CCRF-CEM
[8] = system: COLO 205
[9] = system: DU-145
[10] = system: EKVX
[11] = system: HCT-116
[12] = system: HCT-15
[13] = system: HL-60
[14] = system: HOP-62
[15] = system: HOP-92
[16] = system: HT-29
[17] = system: Hs-578T
[18] = system: IGROV-1
[19] = system: K562
[20] = system: KM12
[21] = system: LOX IMVI
[22] = system: M14
[23] = system: MCF7
[24] = system: MDA-MB-231
[25] = system: MDA-MB-435
[26] = system: MDA-N
[27] = system: MOLT-4
[28] = system: Malme-3M
[29] = system: NCI-H226
[30] = system: NCI-H23
[31] = system: NCI-H522
[32] = system: NCI/ADR-RES
[33] = system: OVCAR-3
[34] = system: OVCAR-4
[35] = system: OVCAR-5
[36] = system: OVCAR-8
[37] = system: PC-3
[38] = system: RPMI-8226
[39] = system: RXF 393
[40] = system: SF-268
[41] = system: SF-295
[42] = system: SF-539
[43] = system: SK-MEL-28
[44] = system: SK-MEL-2
[45] = system: SK-MEL-5
[46] = system: SK-OV-3
[47] = system: SN12C
[48] = system: SNB-19
[49] = system: SNB-75
[50] = system: SR
[51] = system: SW-620
[52] = system: T47D
[53] = system: TK-10
[54] = system: U-251
[55] = system: UACC-257
[56] = system: UACC-62
[57] = system: UO-31
[58] = system: NCI-H460

NCCNS(=O)(=O)c1ccc(N)cc1
GI50 [1]: > 100 µM (inactive)
GI50 [2]: > 100 µM (inactive)
GI50 [3]: > 100 µM (inactive)
GI50 [4]: > 100 µM (inactive)
GI50 [5]: > 100 µM (inactive)
GI50 [6]: > 100 µM (inactive)
GI50 [7]: 32.8 µM (inactive)
GI50 [8]: > 100 µM (inactive)
GI50 [9]: > 100 µM (inactive)
GI50 [10]: > 100 µM (inactive)
GI50 [11]: > 100 µM (inactive)
GI50 [12]: > 100 µM
GI50 [13]: 18.7 µM (inactive)
GI50 [14]: > 100 µM (inactive)
GI50 [15]: > 100 µM (inactive)
GI50 [16]: > 100 µM (inactive)
GI50 [17]: 66.1 µM (inactive)
GI50 [18]: > 100 µM (inactive)
GI50 [19]: > 100 µM (inactive)
GI50 [20]: > 100 µM (inactive)
GI50 [21]: > 100 µM (inactive)
GI50 [22]: > 100 µM (inactive)
GI50 [23]: > 100 µM (inactive)
GI50 [24]: > 100 µM (inactive)
GI50 [25]: > 100 µM (inactive)
GI50 [26]: > 100 µM (inactive)
GI50 [27]: > 100 µM (inactive)
GI50 [28]: > 100 µM (inactive)
GI50 [29]: > 100 µM (inactive)
GI50 [30]: > 100 µM (inactive)
GI50 [31]: > 100 µM (inactive)
GI50 [32]: > 100 µM (inactive)
GI50 [33]: > 100 µM (inactive)
GI50 [34]: > 100 µM (inactive)
GI50 [35]: > 100 µM (inactive)
GI50 [36]: > 100 µM (inactive)
GI50 [37]: > 100 µM (inactive)
GI50 [38]: > 100 µM (inactive)
GI50 [39]: > 100 µM (inactive)
GI50 [40]: > 100 µM (inactive)
GI50 [41]: > 100 µM (inactive)
GI50 [42]: 49.1 µM (inactive)
GI50 [43]: > 100 µM (inactive)
GI50 [44]: > 100 µM (inactive)
GI50 [45]: > 100 µM (inactive)
GI50 [46]: > 100 µM (inactive)
GI50 [47]: > 100 µM (inactive)
GI50 [48]: > 100 µM (inactive)
GI50 [49]: > 100 µM (inactive)
GI50 [50]: 41.4 µM (inactive)
GI50 [51]: > 100 µM (inactive)
GI50 [52]: > 100 µM (inactive)
GI50 [53]: > 100 µM (inactive)
GI50 [54]: > 100 µM (inactive)
GI50 [55]: > 100 µM (inactive)
GI50 [56]: > 100 µM (inactive)
GI50 [57]: > 100 µM (inactive)

OCC(CCc1c[nH]c2ccccc12)c1c[nH]c2ccccc12 (stereo unspecified)
GI50 [1]: 16 µM (inactive)
GI50 [2]: 15.2 µM (inactive)
GI50 [3]: 17.6 µM (inactive)
GI50 [4]: 17.9 µM (inactive)
GI50 [5]: 16.5 µM (inactive)
GI50 [6]: 26.1 µM (inactive)
GI50 [8]: 16.9 µM (inactive)
GI50 [9]: 16.7 µM (inactive)
GI50 [10]: 14.7 µM (inactive)
GI50 [11]: 15.5 µM (inactive)
GI50 [12]: 14.7 µM
GI50 [13]: 8.95 µM (inactive)
GI50 [14]: 20.5 µM (inactive)
GI50 [15]: 15.2 µM (inactive)
GI50 [16]: 17 µM (inactive)
GI50 [17]: 20.8 µM (inactive)
GI50 [18]: 12.7 µM (inactive)
GI50 [19]: 18.2 µM (inactive)
GI50 [20]: 15.9 µM (inactive)
GI50 [21]: 14.3 µM (inactive)
GI50 [22]: 15.3 µM (inactive)
GI50 [23]: 15.5 µM (inactive)
GI50 [24]: 14.1 µM (inactive)
GI50 [25]: 18.4 µM (inactive)
GI50 [26]: 16.7 µM (inactive)
GI50 [27]: 14.5 µM (inactive)
GI50 [28]: 17 µM (inactive)
GI50 [29]: 18.1 µM (inactive)
GI50 [30]: 15.6 µM (inactive)
GI50 [58]: 14.6 µM (inactive)
GI50 [31]: 16 µM (inactive)
GI50 [32]: 18 µM (inactive)
GI50 [33]: 27.3 µM (inactive)
GI50 [34]: 17.9 µM (inactive)
GI50 [35]: 17.4 µM (inactive)
GI50 [36]: 20.7 µM (inactive)
GI50 [37]: 17.2 µM (inactive)
GI50 [38]: 27 µM (inactive)
GI50 [39]: 15.3 µM (inactive)
GI50 [40]: 17.3 µM (inactive)
GI50 [41]: 16.7 µM (inactive)
GI50 [42]: 18.4 µM (inactive)
GI50 [43]: 20.5 µM (inactive)
GI50 [44]: 16.5 µM (inactive)
GI50 [45]: 16.8 µM (inactive)
GI50 [46]: 30.5 µM (inactive)
GI50 [47]: 17.5 µM (inactive)
GI50 [48]: 16.7 µM (inactive)
GI50 [49]: 19.7 µM (inactive)
GI50 [50]: 12.1 µM (inactive)
GI50 [51]: 15.7 µM (inactive)
GI50 [52]: 16 µM (inactive)
GI50 [53]: 19.6 µM (inactive)
GI50 [54]: 16.7 µM (inactive)
GI50 [55]: 11.6 µM (inactive)
GI50 [56]: 14.1 µM (inactive)
GI50 [57]: 12.6 µM (inactive)

CN(/N=C/c1ccccc1O)c1ccc2ccccc2n1
GI50 [1]: 17.7 µM (inactive)
GI50 [2]: 20 µM (inactive)
GI50 [3]: 16.3 µM (inactive)
GI50 [4]: 25.4 µM (inactive)
GI50 [5]: 23.6 µM (inactive)
GI50 [6]: 33.9 µM (inactive)
GI50 [7]: 12.9 µM (inactive)
GI50 [8]: 56.1 µM (inactive)
GI50 [9]: 20.1 µM (inactive)
GI50 [10]: 19.8 µM (inactive)
GI50 [11]: 48.3 µM (inactive)
GI50 [12]: 12.5 µM
GI50 [13]: 81.7 µM (inactive)
GI50 [14]: 16.4 µM (inactive)
GI50 [15]: 35.3 µM (inactive)
GI50 [16]: 29.8 µM (inactive)
GI50 [17]: 26.7 µM (inactive)
GI50 [18]: 11.3 µM (inactive)
GI50 [19]: 60.3 µM (inactive)
GI50 [20]: 21.3 µM (inactive)
GI50 [21]: 30.8 µM (inactive)
GI50 [22]: 27.1 µM (inactive)
GI50 [23]: 2.61 µM (inactive)
GI50 [24]: 29.8 µM (inactive)
GI50 [25]: 44.4 µM (inactive)
GI50 [26]: 52.2 µM (inactive)
GI50 [27]: 24 µM (inactive)
GI50 [28]: 21.6 µM (inactive)
GI50 [29]: 78 µM (inactive)
GI50 [30]: 17.1 µM (inactive)
GI50 [58]: 22.9 µM (inactive)
GI50 [31]: 24.9 µM (inactive)
GI50 [32]: 22.4 µM (inactive)
GI50 [33]: 19.5 µM (inactive)
GI50 [34]: 20.3 µM (inactive)
GI50 [35]: 41.2 µM (inactive)
GI50 [36]: 33.8 µM (inactive)
GI50 [37]: 17.5 µM (inactive)
GI50 [38]: 35.6 µM (inactive)
GI50 [39]: 30.8 µM (inactive)
GI50 [40]: 22.5 µM (inactive)
GI50 [41]: 16.2 µM (inactive)
GI50 [42]: 22.6 µM (inactive)
GI50 [43]: 65.9 µM (inactive)
GI50 [44]: 35.6 µM (inactive)
GI50 [45]: 32.5 µM (inactive)
GI50 [46]: 16.3 µM (inactive)
GI50 [47]: 32.4 µM (inactive)
GI50 [48]: 16.7 µM (inactive)
GI50 [50]: 19.7 µM (inactive)
GI50 [51]: 42.3 µM (inactive)
GI50 [52]: 13.5 µM (inactive)
GI50 [53]: 22.2 µM (inactive)
GI50 [54]: 16.3 µM (inactive)
GI50 [55]: 52.8 µM (inactive)
GI50 [56]: 35.2 µM (inactive)
GI50 [57]: 20.8 µM (inactive)
